Data published in publication PMC6943664 (Molecules, 2019).
Read-outs that look alike come from different tables or passages of the source.

How the values were obtained:
human recombinant MAO B = target: T1, human recombinant MAO B (Homo sapiens, UniProt P27338); assay: Human recombinant MAO B inhibition (kynuramine fluorescence); type: biochemical; conditions: for IC50: mean ±SEM of three independent experiments
T1 construct: purchased Sigma Aldrich, Milan, Italy
T1 sequence (P27338 1-520): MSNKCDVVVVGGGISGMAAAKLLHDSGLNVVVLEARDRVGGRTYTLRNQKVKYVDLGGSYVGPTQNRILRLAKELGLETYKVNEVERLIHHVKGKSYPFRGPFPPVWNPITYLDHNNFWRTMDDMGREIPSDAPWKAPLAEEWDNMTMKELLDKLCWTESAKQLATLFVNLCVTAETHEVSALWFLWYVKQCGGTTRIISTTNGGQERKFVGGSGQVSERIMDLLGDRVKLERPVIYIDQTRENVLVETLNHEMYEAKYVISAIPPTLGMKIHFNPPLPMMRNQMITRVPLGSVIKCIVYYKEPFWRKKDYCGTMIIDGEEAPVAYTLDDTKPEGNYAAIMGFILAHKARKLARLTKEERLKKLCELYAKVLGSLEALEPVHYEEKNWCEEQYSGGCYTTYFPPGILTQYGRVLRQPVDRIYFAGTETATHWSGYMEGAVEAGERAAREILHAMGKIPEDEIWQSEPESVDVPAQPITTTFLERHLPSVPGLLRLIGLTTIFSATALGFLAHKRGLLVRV
Description: (§1) In vitro enzymatic screening toward ChEs was carried out according to the known Ellman’s protocol, by using eeAChE and esBChE as highly homologous and cheaper surrogates for human enzymes. The enzyme inhibition assays on human MAOs were performed by applying already reported methods.
(§2) All enzymes and reagents were purchased from Sigma Aldrich, Milan, Italy. Inhibition of human recombinant MAO A and B was assayed by monitoring the fluorescence of 4-hydroxyquinoline produced from the oxidation of substrate kynuramine, following a previously published method. Acetylcholinesterase from electric eel and butyrylcholinesterase from equine serum were used in the Ellman’s spectrophotometric method as already described. In all cases, a 96-well plate procedure was used with an Infinite M1000 Pro plate reader (Tecan, Cernusco sul Naviglio, Italy). Inhibition values were determined as IC50 values by statistical analysis using Prism (GraphPad Prism version 5.00 for Windows, GraphPad Software, San Diego, CA, USA).

[1] = target: T2, butyrylcholinesterase from equine serum (Equus caballus, UniProt P81908); assay: biochemical; type: biochemical; conditions: for inhibition at 10 µM: read-out: BChE % inhibition at 10 μM
T2 construct: butyrylcholinesterase from equine serum; purchased Sigma Aldrich, Milan, Italy; host or cells: equine serum
T2 sequence (P81908 whole entry): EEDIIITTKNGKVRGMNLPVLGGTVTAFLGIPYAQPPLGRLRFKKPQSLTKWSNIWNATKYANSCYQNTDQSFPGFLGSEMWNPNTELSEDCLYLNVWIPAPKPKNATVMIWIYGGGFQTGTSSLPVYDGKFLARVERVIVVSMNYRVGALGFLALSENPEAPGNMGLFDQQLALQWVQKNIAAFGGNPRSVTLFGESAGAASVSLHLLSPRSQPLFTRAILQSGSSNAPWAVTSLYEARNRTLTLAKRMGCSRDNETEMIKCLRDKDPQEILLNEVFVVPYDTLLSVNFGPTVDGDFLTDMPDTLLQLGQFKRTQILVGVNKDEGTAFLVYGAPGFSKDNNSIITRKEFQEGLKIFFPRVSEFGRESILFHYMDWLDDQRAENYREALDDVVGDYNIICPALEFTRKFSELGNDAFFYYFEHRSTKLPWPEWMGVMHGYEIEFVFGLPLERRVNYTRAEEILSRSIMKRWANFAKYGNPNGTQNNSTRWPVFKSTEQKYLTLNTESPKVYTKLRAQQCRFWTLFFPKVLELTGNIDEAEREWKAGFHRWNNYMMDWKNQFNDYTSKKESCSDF
Description: as §1, §2

[2] = target: T3, Acetylcholinesterase from electric eel (Electrophorus electricus, UniProt O42275); assay: biochemical; type: biochemical; conditions: AChE from electric eel; mean ±SEM of three
T3 construct: purchased Sigma Aldrich, Milan, Italy
T3 sequence (O42275 24-633): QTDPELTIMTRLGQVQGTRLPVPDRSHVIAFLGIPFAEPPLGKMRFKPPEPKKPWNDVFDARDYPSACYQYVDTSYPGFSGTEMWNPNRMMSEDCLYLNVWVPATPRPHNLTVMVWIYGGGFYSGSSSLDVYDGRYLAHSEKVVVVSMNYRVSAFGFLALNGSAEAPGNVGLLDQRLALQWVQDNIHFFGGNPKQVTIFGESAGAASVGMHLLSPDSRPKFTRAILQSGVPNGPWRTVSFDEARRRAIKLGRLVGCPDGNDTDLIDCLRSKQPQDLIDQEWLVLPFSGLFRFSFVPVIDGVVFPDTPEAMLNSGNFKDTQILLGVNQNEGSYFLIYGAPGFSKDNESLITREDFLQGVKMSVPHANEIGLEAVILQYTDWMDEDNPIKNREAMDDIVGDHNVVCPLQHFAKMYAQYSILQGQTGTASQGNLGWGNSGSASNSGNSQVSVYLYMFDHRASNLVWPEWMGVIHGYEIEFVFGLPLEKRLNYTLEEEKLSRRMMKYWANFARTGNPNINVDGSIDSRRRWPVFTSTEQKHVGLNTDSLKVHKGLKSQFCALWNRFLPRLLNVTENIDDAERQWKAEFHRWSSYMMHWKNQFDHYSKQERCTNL
Description: as §1, §2

human recombinant MAO A = target: T4, human recombinant MAO A (Homo sapiens, UniProt P21397); assay: biochemical
T4 construct: purchased Sigma Aldrich, Milan, Italy
T4 sequence (P21397 1-527): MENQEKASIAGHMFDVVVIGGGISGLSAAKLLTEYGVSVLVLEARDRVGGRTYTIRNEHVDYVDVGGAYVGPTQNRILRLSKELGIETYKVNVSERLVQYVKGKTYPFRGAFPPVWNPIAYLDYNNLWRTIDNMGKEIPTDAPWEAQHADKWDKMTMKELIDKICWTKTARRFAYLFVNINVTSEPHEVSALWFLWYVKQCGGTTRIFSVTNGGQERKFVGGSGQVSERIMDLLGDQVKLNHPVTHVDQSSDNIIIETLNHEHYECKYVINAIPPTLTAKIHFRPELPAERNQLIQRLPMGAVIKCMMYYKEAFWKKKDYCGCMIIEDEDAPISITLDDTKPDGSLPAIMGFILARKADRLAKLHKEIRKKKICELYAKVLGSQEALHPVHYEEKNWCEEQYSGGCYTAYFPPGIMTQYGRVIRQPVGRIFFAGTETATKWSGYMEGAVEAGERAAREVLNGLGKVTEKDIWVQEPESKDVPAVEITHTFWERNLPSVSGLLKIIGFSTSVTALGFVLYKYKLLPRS
Description: as §1, §2

eeAChE = target: T5, eeAChE (Electrophorus electricus, UniProt O42275); assay: Inhibition kinetics of eeAChE (Lineweaver-Burk); type: biochemical; conditions: for mechanism of inhibition toward eeAChE: Lineweaver–Burk plots; for Ki: eeAChE, inhibitor 0 to 5 μM, acetylthiocholine 33 to 200 μM
T5 construct: purchased Sigma Aldrich, Milan, Italy
T5 sequence (O42275 24-633): as the sequence (O42275 24-633) above
Description: as §2, with “Enzyme kinetics were used as tool for investigating the inhibition mechanism toward AChE. Compounds 8, bearing a meta-bromobenzyloxy substituent at coumarin C7, and 24, branched with a glycinamide chain as the variation at position 4, were chosen as prototypes bearing different head-or-tail modification schemes. […]. All” for “All”, “USA). […]” for “USA).”

CYP450s = tested on: CYP450s; set-up: method as in PMID 19810674; conditions: cited from earlier work
[3] = set-up: method as in PMID 19810674; conditions: cited from earlier work
rat MAO B = tested on: rat MAO B; set-up: method as in PMID 19810674; conditions: cited from earlier work
[4] = human recombinant MAO, read-out: MAO B IC50
[5] = human recombinant MAO, mean ±SEM of three independent experiments, read-out: MAO A IC50

Structure (SMILES) | IC50 (human recombinant MAO B; [4]) [nM] | inhibition at 10 µM [1] [%] | IC50 [2] [nM] | IC50 (human recombinant MAO A; [5]) [nM] | mechanism of inhibition toward eeAChE (eeAChE) | Ki (eeAChE) [nM] | IC50 (human recombinant MAO B; MAO B IC50, human recombinant MAO) [nM] | SI (MAO A/MAO B selectivity) (human recombinant MAO B; human MAOs) | CYP450s liability (CYP450s) | IC50 (human recombinant MAO A) [nM] | blood–brain barrier penetration [3] | SI, IC50 MAO A/IC50 MAO B (rat MAO B; rat MAOs) | IC50 (rat MAO B; rat enzyme) [nM] | IC50 ([1]; BChE from equine serum, mean ±SEM of three) [nM]
NC(=O)CNCc1cc(=O)oc2cc(OCc3cccc(Cl)c3)ccc12 [compound 24, N^2-({7-[(3-chlorobenzyl)oxy]-2-oxo-2H-chromen-4-yl}methyl)glycinamide] | 61 ± 13 | 13 ± 2 | 2200 ± 700 | 77 ± 14 | mixed-type | 3630 | – | – | – | – | – | – | – | –
CNCc1cc(=O)oc2cc(OCc3cccc(Cl)c3)ccc12 [compound 3, 7-[(3-chlorobenzyl)oxy]-4-[(methylamino)methyl]-2H-chromen-2-one] | – | 43 ± 5 | 6200 ± 700 | – | – | – | 3.9 ± 0.8 | 167 | poor | 650 ± 20 | rapid | 457 | 13 | –
CNCc1cc(=O)oc2cc(OCc3cccc(Br)c3)ccc12 [compound 8, 7-[(3-bromobenzyl)oxy]-4-[(methylamino)methyl]-2H-chromen-2-one] | 2.2 ± 0.1 | – | 2000 ± 40 | 2310 ± 40 | mixed-type | 2910 | – | – | – | – | – | – | – | 2900 ± 400
